Measured values taken from the NIST ThermoML archive (doi:10.1021/acs.jced.7b00297).
Numbers after ± are expanded uncertainties.

Assay: mn = molality of the nth substance listed, in mol/kg
Details: 84.5 kPa, Liquid; for speed of sound: Single path-length method; for mass density: Vibrating tube method

CCCCn1cc[n+](C)c1.O=S(=O)([O-])C(F)(F)F [1-butyl-3-methylimidazolium trifluoromethanesulfonate] + O
Details	mass density, 288.15 K [kg/m3]	mass density, 298.15 K [kg/m3]	mass density, 308.15 K [kg/m3]	mass density, 318.15 K [kg/m3]	speed of sound, 288.15 K [m/s]	speed of sound, 298.15 K [m/s]	speed of sound, 308.15 K [m/s]	speed of sound, 318.15 K [m/s]
m1 = 0.0164	1000.27 ± 4	998.176 ± 4	995.134 ± 4	991.289 ± 4	1468.7 ± 1	1498.5 ± 1	1521.1 ± 1	1537.4 ± 1
m1 = 0.0259	1000.93 ± 4	998.823 ± 4	995.765 ± 4	991.906 ± 4	1469.8 ± 1	1499.4 ± 1	1521.8 ± 1	1537.9 ± 1
m1 = 0.042	1002.06 ± 4	999.922 ± 4	996.836 ± 4	992.952 ± 4	1471.8 ± 1	1501 ± 1	1523 ± 1	1538.8 ± 1
m1 = 0.0699	1003.99 ± 4	1001.79 ± 4	998.662 ± 4	994.732 ± 4	1475 ± 1	1503.5 ± 1	1524.8 ± 1	1540 ± 1
m1 = 0.1072	1006.54 ± 4	1004.28 ± 4	1001.08 ± 4	997.093 ± 4	1479.2 ± 1	1506.6 ± 1	1527.2 ± 1	1541.7 ± 1
m1 = 0.1455	1009.12 ± 4	1006.78 ± 4	1003.52 ± 4	999.47 ± 4	1483.8 ± 1	1510.2 ± 1	1529.8 ± 1	1543.6 ± 1
m1 = 0.3021	1019.31 ± 4.1	1016.66 ± 4.1	1013.11 ± 4.1	1008.81 ± 4	1499.6 ± 1.1	1522.1 ± 1.1	1538.4 ± 1.1	1549.2 ± 1.1
m1 = 0.4645	1029.21 ± 4.1	1026.22 ± 4.1	1022.39 ± 4.1	1017.83 ± 4.1	1513.4 ± 1.1	1532.3 ± 1.1	1545.4 ± 1.1	1553.4 ± 1.1
m1 = 0.6651	1040.6 ± 4.2	1037.21 ± 4.2	1033.03 ± 4.1	1028.16 ± 4.1	1526.7 ± 1.1	1541.5 ± 1.1	1551.1 ± 1.1	1556.2 ± 1.1
m1 = 0.8671	1051.21 ± 4.2	1047.44 ± 4.2	1042.94 ± 4.2	1037.8 ± 4.2	1535.6 ± 1.1	1546.9 ± 1.1	1553.8 ± 1.1	1556.5 ± 1.1

CCCCCCn1cc[n+](C)c1.[Cl-] [1-hexyl-3-methylimidazolium chloride] + O
Details	mass density, 288.15 K [kg/m3]	mass density, 298.15 K [kg/m3]	mass density, 308.15 K [kg/m3]	mass density, 318.15 K [kg/m3]	speed of sound, 288.15 K [m/s]	speed of sound, 298.15 K [m/s]	speed of sound, 308.15 K [m/s]	speed of sound, 318.15 K [m/s]
m1 = 0.0096	999.203 ± 4	997.128 ± 4	994.101 ± 4	990.268 ± 4	1468.2 ± 1	1498.2 ± 1	1521.1 ± 1	1537.6 ± 1
m1 = 0.0296	999.412 ± 4	997.304 ± 4	994.252 ± 4	990.4 ± 4	1471.7 ± 1	1501.3 ± 1	1523.7 ± 1	1539.8 ± 1
m1 = 0.0585	999.713 ± 4	997.562 ± 4	994.471 ± 4	990.58 ± 4	1476.8 ± 1	1505.7 ± 1	1527.4 ± 1	1543 ± 1
m1 = 0.0734	999.867 ± 4	997.692 ± 4	994.583 ± 4	990.681 ± 4	1479.4 ± 1	1507.9 ± 1	1529.3 ± 1	1544.6 ± 1
m1 = 0.0999	1000.15 ± 4	997.932 ± 4	994.787 ± 4	990.859 ± 4	1483.9 ± 1	1511.7 ± 1	1532.6 ± 1	1547.3 ± 1
m1 = 0.1212	1000.37 ± 4	998.125 ± 4	994.95 ± 4	990.996 ± 4	1487.4 ± 1	1514.8 ± 1	1535.2 ± 1	1549.6 ± 1
m1 = 0.1542	1000.73 ± 4	998.421 ± 4	995.204 ± 4	991.215 ± 4	1493 ± 1	1519.5 ± 1	1539.2 ± 1	1553 ± 1
m1 = 0.2244	1001.47 ± 4	999.058 ± 4	995.748 ± 4	991.681 ± 4	1504 ± 1	1528.9 ± 1	1547.3 ± 1	1559.8 ± 1
m1 = 0.2863	1002.12 ± 4	999.62 ± 4	996.227 ± 4	992.089 ± 4	1513.8 ± 1.1	1537.3 ± 1.1	1554.3 ± 1	1565.8 ± 1
m1 = 0.469	1004.08 ± 4	1001.27 ± 4	997.628 ± 4	993.281 ± 4	1540.2 ± 1.1	1559.7 ± 1.1	1573.2 ± 1.1	1581.6 ± 1.1
m1 = 0.8901	1008.38 ± 4	1004.89 ± 4	1000.7 ± 4	995.899 ± 4	1591.4 ± 1.1	1602.4 ± 1.1	1608.7 ± 1.1	1610.9 ± 1.1
